Experimental findings from US9005608B2, “Stabilized solubility-enhanced formulations for oral delivery” (Adds Pharmaceuticals LLC, priority 2009, dated 2015) are described below.

Each structure is given as a SMILES string. Converted amounts (≈) assume the structure as drawn.

Data set [1] in a line: CoQ10 solubility at 37° C. in water and in placebo AQUA Q10 formulation. In kind it is physicochemical. How it is done:
CoQ10 solubility was measured at 37° C. in water as well as in a placebo AQUA Q10 formulation, i.e., Incromega™ E3322, Capmul™ CMC C-8, and Cremophor™ EL at weight ratio of 40/25/20.

The nature of data set [2]: CoQ10 solubility/concentration in non-aqueous formulations at elevated temperature. The format is physicochemical. Particulars: for solubility: organic solvent or mixture. An excerpt: While not intending to be bound to any theory, we posit that when a poorly water-soluble agent is incorporated into a porous carrier with narrow pores, it experiences strong geometric restrictions and large interfacial interactions with the porous matrix. […] Thus, absorbing a previously solubilized CoQ10 liquid formulation, for example, into the narrow pore channels of Fujicalin® (calcium hydrogen phosphate) inhibits re-crystallization and aggregation of CoQ10. This enables, to a large extent, even dispersion and distribution of pharmaceutically active forms of CoQ10 in solubilized form. After the Fujicalin® porous particulates dissolve in acidic gastric fluid, the SSS is released and the trapped SEF self-emulsifies in the fluid to form droplets of sufficiently small size, thereby facilitating absorption of CoQ10 cross the epithelial cells. Other porous particulates include silicon dioxide and magnesium aluminum metasilicate. Combinations may also be used.
CoQ10 in a concentration of >100 mg/ml in a non-aqueous formulation, preferably SEF, at a temperature above 25° C., preferably at or above 48° C. has been achieved.
The invention formulations solubilize CoQ10 at a concentration of >100 mg/ml at a temperature between 30° C. and 60° C., preferably not above 50° C. In addition, the nutrient/vitamin components readily dissolve in aqueous media, so that >75% of these components are released within an hour.

`COC1=C(OC)C(=O)C(C/C=C(\C)CC/C=C(\C)CC/C=C(\C)CC/C=C(\C)CC/C=C(\C)CC/C=C(\C)CC/C=C(\C)CC/C=C(\C)CC/C=C(\C)CCC=C(C)C)=C(C)C1=O` [CoQ10, Coenzyme Q10]: the “CoQ10 solubility in AQUA Q10 formulation relative to solubility in water” value in data set [1] was “over 400,000 times”. In addition, the solubility in data set [1] (placebo AQUA Q10 formulation, oil or lipid, placebo Incromega E3322/Capmul CMC C-8/Cremophor EL 40/25/20, read-out: CoQ10 solubility in AQUA Q10 formulation) is 177 mg/mL (≈ 205 mM); in data set [1] (water, read-out: CoQ10 solubility in water) it was 0.0004 mg/mL (≈ 0.000463 mM); in data set [2] (invention formulations, temperature between 30° C. and 60° C., preferably not above 50° C., read-out: CoQ10 concentration solubilized by the invention formulations), over 100 mg/mL; in data set [2] (non-aqueous formulations, elevated temperature close to its melting temperature (48° C.), read-out: solubility of CoQ10 in non-aqueous formulations) it was over 100 mg/mL. Also, the “CoQ10 concentration in a non-aqueous formulation” value in data set [2] (preferably SEF, temperature above 25° C., preferably at or above 48° C.) was over 100 mg/mL.
